The term IC50 denotes the concentration that inhibits the measured activity by half.

We go through four molecules from BindingDB's records for doi:10.1074/jbc.M608182200 (Johnson & Johnson Pharmaceutical, 2007).

Holding throughout (assay): cFMs Autophosphorylation Fluorescence Polarization End Point Assay.
What all share (conditions): pH 7.5; 22 °C

Experiment [1] concerns the target T1, Macrophage colony-stimulating factor 1 receptor [538-678,753-922] (Homo sapiens, UniProt P07333).
T1 construct: 538-678,753-922
T1 sequence (P07333 whole entry): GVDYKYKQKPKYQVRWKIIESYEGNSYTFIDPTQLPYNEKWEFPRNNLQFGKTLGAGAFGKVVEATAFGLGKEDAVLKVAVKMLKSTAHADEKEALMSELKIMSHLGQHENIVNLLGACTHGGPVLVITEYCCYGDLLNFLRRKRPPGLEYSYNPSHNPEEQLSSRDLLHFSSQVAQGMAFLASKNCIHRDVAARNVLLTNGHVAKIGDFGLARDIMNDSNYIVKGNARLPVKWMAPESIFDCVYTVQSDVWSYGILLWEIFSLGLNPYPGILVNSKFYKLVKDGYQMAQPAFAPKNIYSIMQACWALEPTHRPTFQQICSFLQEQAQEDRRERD
Here is the method:
(§1) Control reactions were run in each plate. Assay buffer was substituted for the compound in positive and negative control wells. The fluorescence polarization was measured after 30 min of incubation. […] The IC50 values reported are the averages of three independent measurements.

The target of experiment [2] is T2, Macrophage colony-stimulating factor 1 receptor [538-972] (UniProt P07333).
T2 construct: 538-972
T2 sequence (P07333 whole entry): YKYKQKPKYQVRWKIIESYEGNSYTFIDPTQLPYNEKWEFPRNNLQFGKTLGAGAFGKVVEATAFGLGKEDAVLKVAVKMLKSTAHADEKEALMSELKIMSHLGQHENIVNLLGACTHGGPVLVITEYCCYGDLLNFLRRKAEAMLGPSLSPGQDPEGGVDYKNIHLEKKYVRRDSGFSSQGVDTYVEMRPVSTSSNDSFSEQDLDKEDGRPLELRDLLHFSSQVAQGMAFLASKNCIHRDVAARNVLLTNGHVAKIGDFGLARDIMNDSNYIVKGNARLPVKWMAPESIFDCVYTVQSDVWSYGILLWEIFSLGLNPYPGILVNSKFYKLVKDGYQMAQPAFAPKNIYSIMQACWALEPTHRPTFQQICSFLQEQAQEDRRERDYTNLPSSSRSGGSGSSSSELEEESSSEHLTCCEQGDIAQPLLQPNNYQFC
Here is the method:
as §1

The target of experiment [3] is T3, Macrophage colony-stimulating factor 1 receptor [538-678,753-922] (Homo sapiens, UniProt P07333).
T3 construct: 538-678,753-922
T3 sequence (P07333 whole entry): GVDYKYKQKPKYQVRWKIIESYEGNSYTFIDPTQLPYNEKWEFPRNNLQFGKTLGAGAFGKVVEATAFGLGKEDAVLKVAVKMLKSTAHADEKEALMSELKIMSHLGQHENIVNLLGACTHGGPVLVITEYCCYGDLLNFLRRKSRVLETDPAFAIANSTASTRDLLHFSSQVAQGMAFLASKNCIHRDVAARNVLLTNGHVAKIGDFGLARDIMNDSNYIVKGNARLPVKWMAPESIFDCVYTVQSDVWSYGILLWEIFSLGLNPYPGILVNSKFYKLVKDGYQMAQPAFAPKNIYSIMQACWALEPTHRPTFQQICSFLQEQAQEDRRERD
As for the experimental part:
as §1
The source holds these as a separate data set.

Consider `Cc1cc2ncc(-c3ccc(O)c(O)c3)nc2cc1C` [2-(3,4-Dihydroxyphenyl)-6,7-dimethylquinoxaline], for which the IC50 in experiment [1] was determined as 9.4 µM; in experiment [2], 10 µM; in experiment [3], 8.3 µM.
For `O=Nc1c(C2C(=O)Nc3ccccc32)[nH]c2ccccc12` (configuration not stated) [Indirubin-3 -monoxime], in that order: 4.2 µM, 4.8 µM and 4.5 µM.
Consider `CN(C)CCNC(=O)N1CCN(Cc2cc(C(F)(F)F)cc(C(F)(F)F)c2)CC1` [JNJ31117164], for which the half-inhibitory concentration (IC50) in experiment [1] was found to be 1.2 µM; in experiment [2], 1.2 µM; in experiment [3], 1.3 µM.
On to `N#C/C(=C\c1ccc(O)c(O)c1)C(N)=S` [alpha-Cyano-(3,4-dihydroxy)thiocinnamide], for which the values for the IC50 in experiment [1], in experiment [2] and in experiment [3] were 3 µM, 2.9 µM and 3.3 µM, respectively.
